Assay results reported in patent publication US9255085B2, “Carboxamide compounds and methods for using the same” (Rigel Pharmaceuticals, Inc., priority 2008, dated 2016).
Each block holds one molecule with its values, some of them ahead of it.

Target: AMPK
Experiment: AMPK activation, enzyme-linked immunosorbent assay
Format: biochemical
Details: ELISA
Procedure: Compounds 1-13 were assayed for their ability to activate AMPK using an enzyme-linked immunosorbent assay.
Compounds 14-16 were assayed for their ability to activate AMPK using an enzyme-linked immunosorbent assay.
Compounds 17-18 were assayed for their ability to activate AMPK using an enzyme-linked immunosorbent assay.
Compounds 19-22 were assayed for their ability to activate AMPK using an enzyme-linked immunosorbent assay.
Compounds 23-26 were assayed for their ability to activate AMPK using an enzyme-linked immunosorbent assay.
Compounds 27-33 were assayed for their ability to activate AMPK using an enzyme-linked immunosorbent assay.
Compounds 34-42 were assayed for their ability to activate AMPK using an enzyme-linked immunosorbent assay.

EC50 (Table 7): 10000 to 100000 nM
Compound: N#Cc1ccc(CN2CCC(NC(=O)c3ccc(C(=O)NC4CCN(c5ccccc5)CC4)cc3)CC2)cc1 [Compound 32, N^1-(1-(4-Cyanobenzyl)piperidin-4-yl)-N^4-(1-phenylpiperidin-4-yl)terephthalamide]

EC50 (Table 8): < 100 nM
Compound: N#Cc1ccc(CN2CCc3ccc(C(=O)NC4CCN(Cc5cccnc5)CC4)cc3C2)cc1 [Compound 38, 2-(4-Cyanobenzyl)-N-(1-(pyridin-3-ylmethyl)piperidin-4-yl)-1,2,3,4-tetrahydroisoquinoline-7-carboxamide]

EC50 (Table 5): < 100 nM
Compound: O=C(NC1CCN(Cc2ccncc2)CC1)c1cnc(OC2CCN(c3ccc(C(F)(F)F)cc3)CC2)cn1 [Compound 21, N-(1-(Pyridin-4-ylmethyl)piperidin-4-yl)-5-(1-(4-(trifluoromethyl)phenyl)piperidin-4-yloxy)pyrazine-2-carboxamide]

EC50 (Table 4): < 100 nM
Compound: N#Cc1ccc(CN2CCC(NC(=O)c3cn4ccc(OC5CCN(c6ccc(C(F)(F)F)cc6)CC5)cc4n3)CC2)cc1 [Compound 18, N-(1-(4-Cyanobenzyl)piperidin-4-yl)-7-(1-(4-(trifluoromethyl)phenyl)piperidin-4-yloxy)imidazo[1,2-a]pyridine-2-carboxamide]

EC50 (Table 5): > 100000 nM
Compound: O=C(NC1CCNCC1)c1cnc(OC2CCN(c3ccc(C(F)(F)F)cc3)CC2)cn1 [Compound 20, N-(piperidin-4-yl)-5-(1-(4-(trifluoromethyl)phenyl)piperidin-4-yloxy)pyrazine-2-carboxamide]

EC50 (Table 7): < 100 nM
Compound: N#Cc1ccc(CN2CCC(NC(=O)c3ccc(C(=O)NC4CCN(Cc5ccc(C(F)(F)F)cc5)CC4)cc3)CC2)cc1 [Compound 31, N^1-(1-(4-Cyanobenzyl)piperidin-4-yl)-N^4-(1-(4-(trifluoromethyl)benzyl)piperidin-4-yl)terephthalamide]

EC50 (Table 8): < 100 nM
Compound: N#Cc1ccc(CN2CCC(NC(=O)c3ccc4c(c3)CN(Cc3ccc(F)cc3)CC4)CC2)cc1 [Compound 40, N-(1-(4-cyanobenzyl)piperidin-4-yl)-2-(4-fluorobenzyl)-1,2,3,4-tetrahydroisoquinoline-7-carboxamide]
